Several values for one entry are separate records, joined by “and”; a condition that tells them apart may be missing. Equal values may be shown once. Entries after “also recorded” stand apart in the source; their conditions may differ. Read-outs that look alike come from different tables or passages of the source.
What was measured:
MDA-MB-468 = experiment: Cell counts, MDA-MB-468; type: cell-based; conditions: for cell counts: single wells
Description: (§1) Cancer cell lines HCC 1419, MCF-7, MDA-MB-468, SKBR3, PC3, HT1299, Saos-2, C-6, AsPc, MDA-MB-231, RKO, HeLa and TT, and normal cell lines HME 50 HT, BJ and CCD-1074sk were tested for changes in metabolism (XTT assay) and cell death (cell counts).
(§2) Cells were plated into 48-well Corning CellBind™ plates at densities of 20,000 cells for normal cells and 10,000˜20,000 cells for cancer cells. 24 to 48 h after plating, cells were treated with the composition according to the invention at concentrations of 4.5e-2M. The first time point treated with the composition of the invention is 0 h. At 3 days after the first treatment with the composition of the invention, medium was changed and the composition of the invention at the same concentrations were added to the cultured cells.
(§3) Cells were harvested using Trypsin-EDTA at the designated time points. […] Two 48-well plates were used per cell line, and they were measured at 0 h, 12 h, 24 h, 48 h, 4 d and 7 d, respectively.
(§4) In the 1st plate, cells were treated with the composition according to the invention and medium was changed at 0 h and 3 d. […] As a result, LC-50 curves were generated in the 1st week.
(§5) At 0 h of the 2nd week, medium was exchanged with untreated medium for the remainder of the experiment. The untreated controls were not measured in the 2nd week (recovery) due to overconfluence by the end of the 1st week. As a result, Recovery curves were generated in the 2nd week.

MCF-7 = experiment: Cell counts, MCF-7; type: cell-based; conditions: for cell counts: single wells
Description: as §1, §2, §3, §4, §5

C-6 = experiment: Cell counts, C-6; type: cell-based, rat
Description: as §1, §2
Cells were harvested using Trypsin-EDTA at the designated time points. When total cells for each well were counted with a Beckman-Coulter Z1 Particle Characterization Unit, the vertical axis represents 1/20 of cell number in the Figures attached to the specification, while when counted with a Beckman-Coulter Vi-Cell, the vertical axis represents cell number in the Figures. Two 48-well plates were used per cell line, and they were measured at 0 h, 12 h, 24 h, 48 h, 4 d and 7 d, respectively.
as §4, §5
C-6 is glioblastoma cells.

PC-3 = experiment: Cell counts, PC-3; type: cell-based, human; conditions: for cell counts: single wells
Description: as §2, §3
In the 1st plate, cells were treated with the composition according to the invention and medium was changed at 0 h and 3 d.
At 0 h of the 2nd week, medium was exchanged with untreated medium for the remainder of the experiment. The untreated controls were not measured in the 2nd week (recovery) due to overconfluence by the end of the 1st week.

SKBR3 = experiment: Cell counts, SKBR3; type: cell-based; conditions: for cell counts: single wells
Description: as §1, §2, §3, §4, §5

AsPc = experiment: Cell counts, AsPc; type: cell-based
Description: as §1, §2, §3, §4

CCD-1074sk = type: cell-based; conditions: for cell counts: single count
Description: As a result, LC-50 curves were generated in the 1st week.
In the 2nd plate, 7 d of the 1st week (LC-50) is the same as 0 h of the 2nd week (recovery).
At 0 h of the 2nd week, medium was exchanged with untreated medium for the remainder of the experiment. […] As a result, Recovery curves were generated in the 2nd week.

CC(=O)O[C@H]1C(=O)[C@@]2(C)[C@H]([C@H](OC(=O)c3ccccc3)[C@]3(O)C[C@H](OC(=O)[C@H](O)[C@@H](NC(=O)c4ccccc4)c4ccccc4)C(C)=C1C3(C)C)[C@]1(OC(C)=O)CO[C@@H]1C[C@@H]2O [Taxol]
cell counts (trend) (MDA-MB-468): increasing; also recorded: again recovering | cell counts, Mean value (MDA-MB-468; 1st week (LC50), 0 h): 36000 | cell counts (MDA-MB-468; 1st week (LC50), 0 h): 32000 and 40000 | cell counts, Mean value (MDA-MB-468; 1st week (LC50), 24 h): 23333 | cell counts (MDA-MB-468; 1st week (LC50), 24 h): 24000 and 30000 and 16000 | cell counts, Mean value (MDA-MB-468; 1st week (LC50), 48 h): 13000 | cell counts (MDA-MB-468; 1st week (LC50), 48 h): 10000 and 12000 and 17000 | cell counts, Mean value (MDA-MB-468; 1st week (LC50), 4 d): 17667 | cell counts (MDA-MB-468; 1st week (LC50), 4 d): 15000 and 18000 and 20000 | cell counts, Mean value (MDA-MB-468; 1st week (LC50), 7 d): 9000 | cell counts, Mean value (MDA-MB-468; 2nd week (recovery), 0 h): 8333 | cell counts, Mean value (MDA-MB-468; 2nd week (recovery), 24 h): 3667 | cell counts (MDA-MB-468; 2nd week (recovery), 24 h): 4000 and 3000 | cell counts, Mean value (MDA-MB-468; 2nd week (recovery), 48 h): 8333 | cell counts, Mean value (MDA-MB-468; 2nd week (recovery), 4 d): 9333 | cell counts (MDA-MB-468; 2nd week (recovery), 4 d): 9000 and 10000 | cell counts, Mean value (MDA-MB-468; 2nd week (recovery), 7 d): 11667 | cell counts (MDA-MB-468; 2nd week (recovery), 7 d): 9000 and 11000 and 15000 | cell counts, Mean value (MCF-7; 1st week (LC50), 0 h): 55333 | cell counts (MCF-7; 1st week (LC50), 0 h): 39000 and 67000 and 60000 | cell counts, Mean value (MCF-7; 1st week (LC50), 24 h): 43667 | cell counts (MCF-7; 1st week (LC50), 24 h): 39000 and 54000 and 38000 | cell counts, Mean value (MCF-7; 1st week (LC50), 48 h): 23333 | cell counts (MCF-7; 1st week (LC50), 48 h): 21000 and 19000 and 30000 | cell counts, Mean value (MCF-7; 1st week (LC50), 4 d): 21667 | cell counts, Mean value (MCF-7; 1st week (LC50), 7 d): 4333 | cell counts (MCF-7; 1st week (LC50), 7 d): 4000 and 5000 | cell counts, Mean value (MCF-7; 2nd week (recovery), 0 h): 2032 | cell counts (MCF-7; 2nd week (recovery), 0 h): 2361 and 1648 and 2087 | cell counts, Mean value (MCF-7; 2nd week (recovery), 24 h): 646 | cell counts (MCF-7; 2nd week (recovery), 24 h): 807 and 728 | cell counts, Mean value (MCF-7; 2nd week (recovery), 48 h): 2084 | cell counts (MCF-7; 2nd week (recovery), 48 h): 1726 and 2010 and 2517 | cell counts, Mean value (MCF-7; 2nd week (recovery), 4 d): 2013 | cell counts (MCF-7; 2nd week (recovery), 4 d): 2135 and 1892 and 2011 | cell counts, Mean value (MCF-7; 2nd week (recovery), 7 d): 1772 | cell counts (MCF-7; 2nd week (recovery), 7 d): 2098 and 1693 and 1524 | cell counts (C-6; 1st week (LC50), 0 h): 6111 and 7077 and 4897 | cell counts, Mean value (C-6; 1st week (LC50), 0 h): 6028 | cell counts (C-6; 1st week (LC50), 12 h): 3726 and 4240 | cell counts, Mean value (C-6; 1st week (LC50), 12 h): 4469 | cell counts (C-6; 1st week (LC50), 24 h): 3895 and 3853 and 3340 | cell counts, Mean value (C-6; 1st week (LC50), 24 h): 3696 | cell counts (C-6; 1st week (LC50), 48 h): 6630 and 6722 | cell counts, Mean value (C-6; 1st week (LC50), 48 h): 6243 | cell counts (C-6; 1st week (LC50), 4 d): 6026 and 6751 and 6905 | cell counts, Mean value (C-6; 1st week (LC50), 4 d): 6561 | cell counts, Mean value (C-6; 1st week (LC50), 7 d): 4450 | cell counts (C-6; 2nd week (recovery), 0 h): 2984 and 3948 and 4207 | cell counts, Mean value (C-6; 2nd week (recovery), 0 h): 3713 | cell counts (C-6; 2nd week (recovery), 24 h): 3392 and 4285 and 3984 | cell counts, Mean value (C-6; 2nd week (recovery), 24 h): 3887 | cell counts (C-6; 2nd week (recovery), 48 h): 3166 and 3930 | cell counts, Mean value (C-6; 2nd week (recovery), 48 h): 4184 | cell counts (C-6; 2nd week (recovery), 4 d): 4825 and 3184 | cell counts, Mean value (C-6; 2nd week (recovery), 4 d): 4031 | cell counts (C-6; 2nd week (recovery), 7 d): 3989 and 4316 and 3634 | cell counts, Mean value (C-6; 2nd week (recovery), 7 d): 3980 | response of the cells (C-6; composition: after 4 days of exposure): resistance to Taxol | killing of PC-3 cells (PC-3): relatively resistant to Taxol | cell counts, Mean value (PC-3; 1st week (LC50), 0 h): 6580 | cell counts, Mean value (PC-3; 1st week (LC50), 12 h): 5462 | cell counts (PC-3; 1st week (LC50), 12 h): 4805 and 5805 and 5775 | cell counts, Mean value (PC-3; 1st week (LC50), 24 h): 5205 | cell counts (PC-3; 1st week (LC50), 24 h): 4360 and 4820 and 6435 | cell counts, Mean value (PC-3; 1st week (LC50), 48 h): 2013 | cell counts (PC-3; 1st week (LC50), 48 h): 1821 and 1969 | cell counts, Mean value (PC-3; 1st week (LC50), 4 d): 1029 | cell counts (PC-3; 1st week (LC50), 4 d): 861 and 975 and 1250 | cell counts, Mean value (PC-3; 2nd week (recovery), 0 h): 514 | cell counts (PC-3; 2nd week (recovery), 0 h): 392 and 389 and 760 | cell counts, Mean value (PC-3; 2nd week (recovery), 24 h): 305 | cell counts (PC-3; 2nd week (recovery), 24 h): 269 and 328 and 318 | cell counts, Mean value (PC-3; 2nd week (recovery), 48 h): 350 | cell counts (PC-3; 2nd week (recovery), 48 h): 369 and 303 and 378 | cell counts, Mean value (PC-3; 2nd week (recovery), 4 d): 1324 | cell counts (PC-3; 2nd week (recovery), 4 d): 1574 and 1376 and 1023 | cell counts, Mean value (PC-3; 2nd week (recovery), 7 d): 483 | cell counts, Mean value (SKBR3; 1st week (LC50), 0 h): 2667 | cell counts (SKBR3; 1st week (LC50), 0 h): 2000 and 4000 | cell counts, Mean value (SKBR3; 1st week (LC50), 24 h): 9333 | cell counts (SKBR3; 1st week (LC50), 24 h): 6000 and 11000 | cell counts, Mean value (SKBR3; 1st week (LC50), 48 h): 4000 | cell counts (SKBR3; 1st week (LC50), 48 h): 4000 | cell counts, Mean value (SKBR3; 1st week (LC50), 4 d): 1000 | cell counts (SKBR3; 1st week (LC50), 4 d): 1000 | cell counts, Mean value (SKBR3; 1st week (LC50), 7 d): 3000 | cell counts, Mean value (SKBR3; 2nd week (recovery), 0 h): 70667 | cell counts (SKBR3; 2nd week (recovery), 0 h): 60000 and 80000 and 72000 | cell counts, Mean value (SKBR3; 2nd week (recovery), 24 h): 49333 | cell counts (SKBR3; 2nd week (recovery), 24 h): 32000 and 60000 and 56000 | cell counts, Mean value (SKBR3; 2nd week (recovery), 48 h): 44000 | cell counts (SKBR3; 2nd week (recovery), 48 h): 56000 and 36000 and 40000 | cell counts, Mean value (SKBR3; 2nd week (recovery), 4 d): 17250 | cell counts (SKBR3; 2nd week (recovery), 4 d): 15000 and 12500 and 22000 | cell counts, Mean value (SKBR3; 2nd week (recovery), 7 d): 10000 | cell counts (SKBR3; 2nd week (recovery), 7 d): 10000 and 12000 and 8000 | process of cell death (microscopy) (AsPc): cell membranes were ruptured by toxicity of Taxol, and then nuclei of cells changed into black | cell counts (AsPc; 1st week (LC50), 0 h): 2340 and 2039 and 2111 | cell counts, Mean value (AsPc; 1st week (LC50), 0 h): 2163 | cell counts (AsPc; 1st week (LC50), 12 h): 2833 and 2279 and 2550 | cell counts, Mean value (AsPc; 1st week (LC50), 12 h): 2554 | cell counts (AsPc; 1st week (LC50), 24 h): 2336 and 2161 and 2310 | cell counts, Mean value (AsPc; 1st week (LC50), 24 h): 2269 | cell counts (AsPc; 1st week (LC50), 48 h): 2810 and 2130 and 1800 | cell counts (AsPc; 1st week (LC50), 4 d): 2007 and 2100 | cell counts, Mean value (AsPc; 1st week (LC50), 4 d): 2042 | cell counts (AsPc; 1st week (LC50), 7 d): 2174 and 1902 | cell counts, Mean value (AsPc; 1st week (LC50), 7 d): 1823 | cell counts (AsPc; 2nd week (recovery), 0 h): 1213 and 1770 | cell counts (AsPc; 2nd week (recovery), 48 h): 1210 and 1202 | cell counts, Mean value (AsPc; 2nd week (recovery), 4 d): 631 | cell counts (AsPc; 2nd week (recovery), 7 d): 73 and 85 | cell counts, Mean value (AsPc; 2nd week (recovery), 7 d): 86 | cell counts, Mean value (CCD-1074sk; 1st week (LC50), 0 h): 8000 | cell counts (CCD-1074sk; 1st week (LC50), 0 h): 9000 and 7000 | cell counts, Mean value (CCD-1074sk; 1st week (LC50), 24 h): 15500 | cell counts (CCD-1074sk; 1st week (LC50), 24 h): 15000 and 16000 | cell counts, Mean value (CCD-1074sk; 1st week (LC50), 48 h): 10500 | cell counts (CCD-1074sk; 1st week (LC50), 48 h): 10000 and 11000 | cell counts, Mean value (CCD-1074sk; 1st week (LC50), 4 d): 4500 | cell counts (CCD-1074sk; 1st week (LC50), 4 d): 6000 and 3000 | cell counts, Mean value (CCD-1074sk; 1st week (LC50), 7 d): 11500 | cell counts (CCD-1074sk; 1st week (LC50), 7 d): 11000 and 12000 | cell counts, Mean value (CCD-1074sk; 2nd week (recovery), 0 h): 10500 | cell counts (CCD-1074sk; 2nd week (recovery), 0 h): 10000 and 11000 | cell counts, Mean value (CCD-1074sk; 2nd week (recovery), 48 h): 8000 | cell counts (CCD-1074sk; 2nd week (recovery), 48 h): 10000 and 6000 | cell counts, Mean value (CCD-1074sk; 2nd week (recovery), 4 d): 5500 | cell counts (CCD-1074sk; 2nd week (recovery), 4 d): 4000 and 7000 | cell counts (CCD-1074sk; 2nd week (recovery), 7 d): 18000 and 9000
